Key:
MDA435 cells = experiment: Tumor growth of MDA435 cells in nude mice; assay type: in vivo
Method: (§1) Tumor growth of B16 cells, C6 cells, or MDA435 cells in the presence or absence of ECM, and with or without cisplatin, were examined in nude mice. Cells, ECM and Cisplatin were injected simultaneously subcutaneously in the lower haunch of a nude mouse. Tumor growth was followed over time using photography, measurements of length and width, then finally by weight. FIGS. 8 and 9 show the growth of tumors from C6 cells in nude mice in the presence (FIG. 9) and absence (FIG. 8) of ECM on day 14 post-injection. FIGS. 10 and 11 show the growth of tumors from C6 cells in nude mice in the presence of ECM with cisplatin (FIG. 10) and cisplatin without ECM (FIG. 11) of ECM on day 14 post-injection.

C6 cells = experiment: Tumor growth of C6 cells in nude mice; assay type: in vivo; conditions: compared to no treatment control (FIG. 12)
Method: as §1

Q: With `N.N.[Cl][Pt][Cl]` [cisplatin] as the compound, how does the “tumor growth of MDA435 cells over 25 days” value (MDA435 cells; nude mice, compared to no treatment control (FIG. 14)) read?
A: reduction in tumor mass to zero

Q: And the “tumor growth of MDA435 cells in nude mice” value (MDA435 cells; versus no treatment control with palpable tumors (FIGS. 13A-D))?
A: reduced or no tumor growth

Q: And the “tumor growth of C6 cells over 18 days” value (C6 cells)?
A: no growth
